Measurements taken from patent US20240217974A1, “ISOQUINOLONE COMPOUND AND USE THEREOF” (Suzhou Suncadia Biopharmaceuticals Co., Ltd., priority 2021, published 2024).
pIC50: −log10 of the molar value. Where two headings read alike, the source gives them in different places.

Columns and labels:
PDE4B1 = target: T1, PDE4B1 (Homo sapiens, UniProt Q07343); test: In vitro PDE4B enzyme activity assay (IMAP FP-based); assay type: biochemical
T1 construct: purchased BPS 60041
Protocol: (§1) The formula for calculating inhibition rates is: inhibition rate=M/(M−Mcontrol)×100; IC50 values were calculated from concentration-inhibition rate curves fitted.

PDE3A = target: T2, PDE3A (Homo sapiens, UniProt Q14432); test: In vitro PDE3A enzyme activity assay (IMAP FP-based); assay type: biochemical
T2 construct: purchased BPS 60030
Protocol: as §1

[1] = mouse, in vivo, inhaled or intranasal
Protocol: To evaluate the pharmacokinetic characteristics of test samples in […] and their distributions in lung tissue after intratracheal administration.
0.5 g of tween 80 was weighed out and dissolved in 50 mL of a pH 2.5 citric acid/disodium hydrogen phosphate buffered salt solution for later use.
1.0 mg of test compound was weighed out and dissolved in a proper amount of the tween solution to prepare a 0.03 mg/mL for later use.
0.5 g of CMC-Na and 0.5 g of tween 20 were weighed out and well mixed with 50 mL of 0.9% normal saline solution to obtain a 1% CMC-Na and tween 20 solution for later use.
1.0 mg of test compound was weighed out, added to 10 mL of the above solution, dispersed ultrasonically, and well stirred to obtain a suspension for later use.
Mice were anesthetized with isoflurane gas and then administered compounds via the trachea. […] 200 μL of whole blood was collected, then anticoagulated with EDTA-K2, and centrifuged at 2-8° C. at a rate of about 6800 g for 6 min. The resulting plasma was transferred to properly labeled test tubes within 1 h of blood collection/centrifugation and stored at −80° C. […] The collected tissue samples were transferred to properly labeled test tubes and stored at −80° C.
Plasma samples (30.0 μL) were added to 1.5 mL centrifuge tubes, and 150 μL of internal standard working solution was added. […]

[2] = recent phase II clinical data; cited from earlier work

T1 sequence (Q07343 whole entry): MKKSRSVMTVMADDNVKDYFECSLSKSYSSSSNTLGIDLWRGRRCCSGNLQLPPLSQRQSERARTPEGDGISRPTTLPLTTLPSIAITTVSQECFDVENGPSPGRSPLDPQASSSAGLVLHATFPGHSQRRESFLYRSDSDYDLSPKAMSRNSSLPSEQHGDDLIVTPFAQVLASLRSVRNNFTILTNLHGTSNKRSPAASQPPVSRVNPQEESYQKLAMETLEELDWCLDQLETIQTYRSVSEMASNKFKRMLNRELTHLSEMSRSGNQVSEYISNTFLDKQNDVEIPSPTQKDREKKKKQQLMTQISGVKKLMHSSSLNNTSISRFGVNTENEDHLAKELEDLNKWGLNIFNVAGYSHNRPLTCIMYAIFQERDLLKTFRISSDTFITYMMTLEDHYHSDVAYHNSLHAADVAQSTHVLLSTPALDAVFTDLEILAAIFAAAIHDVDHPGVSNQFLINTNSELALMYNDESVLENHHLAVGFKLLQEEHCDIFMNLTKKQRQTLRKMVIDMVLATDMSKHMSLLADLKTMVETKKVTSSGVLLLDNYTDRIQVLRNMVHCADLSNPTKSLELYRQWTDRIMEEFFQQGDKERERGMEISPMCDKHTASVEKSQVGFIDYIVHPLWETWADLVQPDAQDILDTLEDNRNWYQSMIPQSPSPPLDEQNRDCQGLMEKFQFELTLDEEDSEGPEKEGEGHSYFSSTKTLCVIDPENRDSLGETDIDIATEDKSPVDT
T2 sequence (Q14432 669-1141 limits assumed): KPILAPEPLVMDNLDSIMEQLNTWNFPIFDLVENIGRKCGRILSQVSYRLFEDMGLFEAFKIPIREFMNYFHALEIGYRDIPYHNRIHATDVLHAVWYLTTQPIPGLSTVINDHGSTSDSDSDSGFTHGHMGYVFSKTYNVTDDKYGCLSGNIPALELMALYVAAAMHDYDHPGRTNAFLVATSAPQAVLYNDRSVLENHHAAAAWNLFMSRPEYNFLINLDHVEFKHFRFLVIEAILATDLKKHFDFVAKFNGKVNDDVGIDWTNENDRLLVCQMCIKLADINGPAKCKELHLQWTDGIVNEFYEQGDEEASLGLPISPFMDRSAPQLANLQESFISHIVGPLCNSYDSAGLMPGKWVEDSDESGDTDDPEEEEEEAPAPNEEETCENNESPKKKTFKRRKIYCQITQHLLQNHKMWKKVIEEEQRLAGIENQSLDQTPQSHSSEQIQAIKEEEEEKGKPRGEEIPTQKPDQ

Compound | Inhibition rate (%) PDE4B1 (2000 nM) (PDE4B1; compound at 2000 nM) [%] | IC50 (PDE4B1; read-out: IC50 (nM) PDE4B1) [nM] | IC50 (PDE3A) [nM] | Inhibition rate (%) PDE3A (500 nM) (PDE3A; compound at 500 nM) [%] | Plasma T1/2 [1] [min] | Plasma Tmax [1] [min] | bronchodilation and symptoms in patients with chronic obstructive pulmonary disease [2] | tolerability / adverse events [2] | pIC50 (PDE4B1) | inhibition at 2 µM (PDE4B1; read-out: Inhibition rate (%) PDE4B1 (2000 nM)) [%]
9,10-dimethoxy-2-(2,4,6-trimethylphenylimino)-3-(N-carbamoyl-2-aminoethyl)-3,4,6,7-tetrahydro-2H-pyrimido[6,l-a]isoquinolin-4-one [RPL554] | 64.2 | 110 | 0.25 | 99.2 | 52.8 | 15 | significantly improve bronchodilation and symptoms | well tolerated | – | –
CCOc1cc2c(cc1OC)-c1cc(N(CCN3CCOC3=O)c3c(C)cc(C)cc3C)nc(=O)n1CC2 [WX001] | – | – | – | – | – | – | – | – | 6.06 | 66.3
